From the NIST ThermoML archive (doi:10.1016/j.jct.2013.01.012)

How the values were obtained:
[1] = refractive index (Na D-line) (dimensionless); mn = molality of the nth substance listed, in mol/kg; conditions: 101 kPa, Liquid, Standard Abbe refractometry
[2] = mn = molality of the nth substance listed, in mol/kg; conditions: 101 kPa, Liquid; for speed of sound: Sing-around technique in a fixed-path interferometer; for mass density: Vibrating tube method

O=P([O-])(O)O.[K+] [monopotassium phosphate] + O
Conditions | mass density, [2] [kg/m3] | refractive index, [1] | speed of sound, [2] [m/s]
298.15 K, m1 = 0.1 | 1007.01 | 1.3343 | 1506.5
298.15 K, m1 = 0.3 | 1026.44 | 1.3374 | 1524.5
298.15 K, m1 = 0.5 | 1046.68 | 1.3401 | 1542.1
298.15 K, m1 = 0.7 | 1066.58 | 1.3435 | –
298.15 K, m1 = 0.9 | 1088.28 | 1.3466 | 1577.6
303.15 K, m1 = 0.1 | 1005.58 | 1.3336 | 1518.4
303.15 K, m1 = 0.3 | 1025.15 | 1.3368 | 1536
303.15 K, m1 = 0.5 | 1045.29 | 1.3397 | 1553.2
303.15 K, m1 = 0.7 | 1065.65 | 1.3427 | 1570.1
303.15 K, m1 = 0.9 | 1087.42 | 1.3463 | 1587.9
308.15 K, m1 = 0.1 | 1004.16 | 1.333 | 1528.8
308.15 K, m1 = 0.3 | 1023.58 | 1.3361 | 1545.8
308.15 K, m1 = 0.5 | 1044.55 | 1.3392 | 1563.1
308.15 K, m1 = 0.7 | 1065.08 | 1.3423 | 1580
308.15 K, m1 = 0.9 | 1086.5 | 1.3455 | 1596.6
